Target: T1, ERAP1 (Homo sapiens, UniProt Q9NZ08)
T1 construct: Purified ERAP1(37-941)-10His (ERAP1)
Assay: ERAP1 mediated hydrolysis of an amide substrate measured in a biochemical system (10-mer inhibition assay)
Conditions: purified ERAP1(37-941)-10His; 10-mer substrate; 23° C. for 1 h; excitation 279 nm, emission 355 nm; read-out: IC50 vs Decapeptide WRVYEKC(Dnp)ALK-acid (where Dnp is Dinitrophenyl maleimide) (10-mer)
Experimental: Biological Assay 1: ERAP1 Mediated Hydrolysis of an Amide Substrate Measured in a Biochemical System
• 1× Assay buffer (AB): 25 mM Bis-tris propane, 0.05% w/v • Hydroxypropylmethylcellulose pH 7.75 made with Optima grade water • Decapeptide WRVYEKC(Dnp)ALK-acid (where Dnp is Dinitrophenyl maleimide) (10-mer) • L-Leucine 7-amido-4-methylcoumarin (L-AMC) • Purified ERAP1(37-941)-10His (ERAP1) Assay Procedure:
12.5 μL ERAP1 enzyme in 1×AB was combined with 250 nL test compound in DMSO. 12.5 μL of either 240 μM L-AMC in 1×AB or 100 μM 10-mer in 1×AB was added to the reaction and incubated at 23° C. for 1 h. For detection, plates were read at excitation 365 nm and emission 442 nm (L-AMC) or excitation 279 nm and emission 355 nm (10-mer). Compound IC50 was determined using a 4-parameter equation.

T1 sequence (Q9NZ08 37-941): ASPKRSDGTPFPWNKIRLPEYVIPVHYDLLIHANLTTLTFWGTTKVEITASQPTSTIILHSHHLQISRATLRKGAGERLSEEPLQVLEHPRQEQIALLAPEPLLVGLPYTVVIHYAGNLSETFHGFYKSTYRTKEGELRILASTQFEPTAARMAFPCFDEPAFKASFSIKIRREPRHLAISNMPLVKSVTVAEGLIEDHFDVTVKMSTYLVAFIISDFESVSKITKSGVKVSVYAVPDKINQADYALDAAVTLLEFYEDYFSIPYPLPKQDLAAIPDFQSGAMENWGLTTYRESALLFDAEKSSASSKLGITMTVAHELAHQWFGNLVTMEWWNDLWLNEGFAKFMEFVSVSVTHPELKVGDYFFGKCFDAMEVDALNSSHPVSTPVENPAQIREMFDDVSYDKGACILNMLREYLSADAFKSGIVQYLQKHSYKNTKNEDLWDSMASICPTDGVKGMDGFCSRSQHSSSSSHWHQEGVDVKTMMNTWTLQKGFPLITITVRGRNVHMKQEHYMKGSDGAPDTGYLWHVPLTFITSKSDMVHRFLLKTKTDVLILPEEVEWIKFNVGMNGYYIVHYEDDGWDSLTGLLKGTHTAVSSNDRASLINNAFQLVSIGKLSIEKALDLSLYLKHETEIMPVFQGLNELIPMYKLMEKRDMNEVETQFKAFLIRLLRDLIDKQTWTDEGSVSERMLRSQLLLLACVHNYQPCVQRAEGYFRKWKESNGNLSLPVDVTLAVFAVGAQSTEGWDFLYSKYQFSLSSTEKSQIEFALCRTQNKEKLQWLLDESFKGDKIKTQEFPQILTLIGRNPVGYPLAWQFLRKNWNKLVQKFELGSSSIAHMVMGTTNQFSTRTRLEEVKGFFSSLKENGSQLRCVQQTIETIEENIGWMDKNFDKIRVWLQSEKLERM

IC50 | SMILES
< 1 nM | CC1CC(COc2cc(Cl)c(C#N)cc2NS(=O)(=O)c2cc(C(=O)O)ccc2C2CC2)C1 (mixture of isomers) [Example 89, 3-(N-(4-chloro-5-cyano-2-((3-methylcyclobutyl)methoxy)phenyl)sulfamoyl)-4-cyclopropylbenzoic acid]
< 1 nM | COC1CCC(Oc2cc(Cl)c(C#N)cc2NS(=O)(=O)c2cc(C(=O)O)ccc2C2CC2)C1 (mixture of isomers) [Example 124, 3-(N-(4-chloro-5-cyano-2-((3-methoxycyclopentyl)oxy)phenyl)sulfa-moyl)-4-cyclopropylbenzoic acid]
< 1 nM | N#Cc1cc(NS(=O)(=O)c2cc(C(=O)O)ccc2C2CC2)c(OC2CCCC2O)cc1Cl (racemic) [Example 59, 3-(N-(4-chloro-5-cyano-2-((trans-2-hydroxycyclopentyl)oxy)phenyl)sulfamoyl)-4-cyclopropylbenzoic acid]
< 1 nM | N#Cc1cc(NS(=O)(=O)c2cc(C(=O)O)ccc2C2CC2)c(OC2CCC(C#N)C2)cc1Cl (racemic) [Example 72, 3-(N-(4-chloro-5-cyano-2-((trans-3-cyanocyclopentyl)oxy)phenyl)sulfamoyl)-4-cyclopropylbenzoic acid]
< 1 nM | N#Cc1cc(NS(=O)(=O)c2cc(C(=O)O)ccc2C2CC2)c(OC2CCC(C#N)C2)cc1Cl (racemic) [Example 74, 3-(N-(4-chloro-5-cyano-2-((cis-3-cyanocyclopentyl)oxy)phenyl)sulfamoyl)-4-cyclopropylbenzoic acid]
< 1 nM | C#CC1CCCC1Oc1cc(Cl)c(C#N)cc1NS(=O)(=O)c1cc(C(=O)O)ccc1C1CC1 (racemic) [Example 84, 3-(N-(4-chloro-5-cyano-2-((trans-2-ethynylcyclopentyl)oxy)phenyl)sulfamoyl)-4-cyclopropylbenzoic acid]
< 1 nM | COC1CCCC1Oc1cc(Cl)c(C#N)cc1NS(=O)(=O)c1cc(C(=O)O)ccc1C1CC1 (racemic) [Example 85, 3-(N-(4-chloro-5-cyano-2-((trans-2-methoxycyclopentyl)oxy)phenyl)sulfamoyl)-4-cyclopropylbenzoic acid]
< 1 nM | N#Cc1cc(NS(=O)(=O)c2cc(C(=O)O)ccc2C2CC2)c(OC2CCCC2F)cc1Cl (racemic) [Example 86, 3-(N-(4-chloro-5-cyano-2-((trans-2-fluorocyclopentyl)oxy)phenyl)sulfamoyl)-4-cyclopropylbenzoic acid]
< 1 nM | CC1CCCC1Oc1cc(Cl)c(C#N)cc1NS(=O)(=O)c1cc(C(=O)O)ccc1C1CC1 (racemic) [Example 90, 3-(N-(4-chloro-5-cyano-2-((trans-2-methylcyclopentyl)oxy)phenyl)sulfamoyl)-4-cyclopropylbenzoic acid]
< 1 nM | N#Cc1cc(NS(=O)(=O)c2cc(C(=O)O)ccc2C2CC2)c(OC2CCCC2O)cc1Cl (racemic) [Example 98, 3-(N-(4-chloro-5-cyano-2-((cis-2-hydroxycyclopentyl)oxy)phenyl)sulfamoyl)-4-cyclopropylbenzoic acid]
< 1 nM | COC1CCCC1Oc1cc(Cl)c(C#N)cc1NS(=O)(=O)c1cc(C(=O)O)ccc1C1CC1 (racemic) [Example 102, 3-(N-(4-chloro-5-cyano-2-((cis-2-methoxycyclopentyl)oxy)phenyl)sulfa-moyl)-4-cyclopropylbenzoic acid]
< 1 nM | CC1CCCC1Oc1cc(Cl)c(C#N)cc1NS(=O)(=O)c1cc(C(=O)O)ccc1C1CC1 (racemic) [Example 105, 3-(N-(4-chloro-5-cyano-2-((cis-2-methylcyclopentyl)oxy)-phenyl)sulfamoyl)-4-cyclopropylbenzoic acid]
< 1 nM | N#Cc1cc(NS(=O)(=O)c2cc(C(=O)O)ccc2C2CC2)c(OC2CCC(O)C2)cc1Cl (racemic) [Example 110, 3-(N-(4-chloro-5-cyano-2-((cis-3-hydroxycyclopentyl)oxy)phenyl)sulfa-moyl)-4-cyclopropylbenzoic acid]
1 to 5 nM | N#Cc1cc(NS(=O)(=O)c2cc(C(=O)O)ccc2C2CC2)c(OC2CCC(O)C2)cc1Cl (racemic) [Example 111, 3-(N-(4-chloro-5-cyano-2-((trans-3-hydroxycyclopentyl)oxy)phenyl)sulfa-moyl)-4-cyclopropylbenzoic acid]
1 to 5 nM | N#Cc1cc(NS(=O)(=O)c2cc(C(=O)O)ccc2C2CC2)c(OC2CCC23CCC3)cc1Cl (single isomer, unassigned) [Example 91, 3-(N-(4-chloro-5-cyano-2-(spiro[3.3]heptan-1-yloxy)phenyl)sulfamoyl)-4-cyclopropylbenzoic acid]
< 1 nM | N#Cc1cc(NS(=O)(=O)c2cc(C(=O)O)ccc2C2CC2)c(OC2CCC23CCC3)cc1Cl (single isomer, unassigned) [Example 92, 3-(N-(4-chloro-5-cyano-2-(spiro[3.3]heptan-1-yloxy)phenyl)sulfamoyl)-4-cyclopropylbenzoic acid]
< 1 nM | CC1CCCC1Oc1cc(Cl)c(C#N)cc1NS(=O)(=O)c1cc(C(=O)O)ccc1C1CC1 (single isomer, unassigned) [Example 99, 3-(N-(4-chloro-5-cyano-2-((trans-2-methylcyclopentyl)oxy)-phenyl)sulfamoyl)-4-cyclopropylbenzoic acid]
< 1 nM | CC1CCCC1Oc1cc(Cl)c(C#N)cc1NS(=O)(=O)c1cc(C(=O)O)ccc1C1CC1 (single isomer, unassigned) [Example 100, 3-(N-(4-chloro-5-cyano-2-((trans-2-methylcyclopentyl)oxy)-phenyl)sulfamoyl)-4-cyclopropylbenzoic acid]
< 1 nM | COC1CCCC1Oc1cc(Cl)c(C#N)cc1NS(=O)(=O)c1cc(C(=O)O)ccc1C1CC1 (single isomer, unassigned) [Example 103, 3-(N-(4-chloro-5-cyano-2-((trans-2-methoxycyclopentyl)-oxy)phenyl)sulfamoyl)-4-cyclopropylbenzoic acid]
> 5 nM | COC1CCCC1Oc1cc(Cl)c(C#N)cc1NS(=O)(=O)c1cc(C(=O)O)ccc1C1CC1 (single isomer, unassigned) [Example 104, 3-(N-(4-chloro-5-cyano-2-((trans-2-methoxycyclopentyl)-oxy)phenyl)sulfamoyl)-4-cyclopropylbenzoic acid]
< 1 nM | N#Cc1cc(NS(=O)(=O)c2cc(C(=O)O)ccc2C2CC2)c(OC2CCC23CC3)cc1Cl (single isomer, unassigned) [Example 106, 3-(N-(4-chloro-5-cyano-2-(spiro[2.3]hexan-4-yloxy)phenyl)-sulfamoyl)-4-cyclopropylbenzoic acid]
< 1 nM | N#Cc1cc(NS(=O)(=O)c2cc(C(=O)O)ccc2C2CC2)c(OC2CCC23CC3)cc1Cl (single isomer, unassigned) [Example 107, 3-(N-(4-chloro-5-cyano-2-(spiro[2.3]hexan-4-yloxy)phenyl)-sulfamoyl)-4-cyclopropylbenzoic acid]

SMILES | IC50
CC1CC(Oc2cc(Cl)c(C#N)cc2NS(=O)(=O)c2cc(C(=O)O)ccc2C2CC2)C1 (mixture of isomers) [Example 88, 3-(N-(4-chloro-5-cyano-2-(3-methylcyclobutoxy)phenyl)sulfamoyl)-4-cyclopropylbenzoic acid] | < 1 nM
N#Cc1cc(NS(=O)(=O)c2cc(C(=O)O)ccc2C2CC2)c(OC2CCC2C2CC2)cc1Cl (mixture of isomers) [Example 108, 3-(N-(4-chloro-5-cyano-2-(2-cyclopropylcyclobutoxy)-phenyl)sulfamoyl)-4-cyclopropylbenzoic acid] | < 1 nM
N#Cc1cc(NS(=O)(=O)c2cc(C(=O)O)ccc2C2CC2)c(OC2CCC2O)cc1Cl (racemic) [Example 113, 3-(N-(4-chloro-5-cyano-2-(cis-2-hydroxycyclobutoxy)phenyl)sulfamoyl)-4-cyclopropylbenzoic acid] | < 1 nM
N#Cc1cc(NS(=O)(=O)c2cc(C(=O)O)ccc2C2CC2)c(OC2CCC2O)cc1Cl (racemic) [Example 118, 3-(N-(4-chloro-5-cyano-2-(trans-2-hydroxycyclobutoxy)phenyl)sulfamoyl)-4-cyclopropylbenzoic acid] | < 1 nM
COC1CCC1Oc1cc(Cl)c(C#N)cc1NS(=O)(=O)c1cc(C(=O)O)ccc1C1CC1 (racemic) [Example 119, 3-(N-(4-chloro-5-cyano-2-(trans-2-methoxycyclobutoxy)phenyl)sulfamoyl)-4-cyclopropylbenzoic acid] | < 1 nM
COC1CCC1Oc1cc(Cl)c(C#N)cc1NS(=O)(=O)c1cc(C(=O)O)ccc1C1CC1 (racemic) [Example 137, 3-(N-(4-chloro-5-cyano-2-(cis-2-methoxycyclobutoxy)phenyl)sulfamoyl)-4-cyclopropylbenzoic acid] | < 1 nM
CC1(C)CCC1Oc1cc(Cl)c(C#N)cc1NS(=O)(=O)c1cc(C(=O)O)ccc1C1CC1 (single isomer, unassigned) [Example 93, 3-(N-(4-chloro-5-cyano-2-(2,2-dimethylcyclobutoxy)phenyl)-sulfamoyl)-4-cyclopropylbenzoic acid] | 1 to 5 nM
CC1(C)CCC1Oc1cc(Cl)c(C#N)cc1NS(=O)(=O)c1cc(C(=O)O)ccc1C1CC1 (single isomer, unassigned) [Example 94, 3-(N-(4-chloro-5-cyano-2-(2,2-dimethylcyclobutoxy)phenyl)-sulfamoyl)-4-cyclopropylbenzoic acid] | < 1 nM

From patent US12692223B2, “Phenyl-sulfamoyl-benzoic acid derivatives as ERAP1-modulators” (GREY WOLF THERAPEUTICS LIMITED, priority 2021, dated 2026)
